Experiments:
hP2x = test: Off-target ligand-gated ion channels in Xenopus oocytes; type: cell-based, human; conditions: agonist 9 µM ATP; mean ± SEM
Protocol: EU93-108 was further examined for its behavior against common off-target receptors. First, selectivity for GluN2B over other ion channels in the brain was examined via two-electrode voltage clamp recordings of Xenopus oocytes expressing AMPA, kainate, nicotinic acetylcholine, serotonin, GABA, glycine, and ATP receptors. Current responses were tested with saturating concentrations of agonist in both the absence and presence of 10 μM EU93-108, and confirmed selectivity for GluN2B-containing NMDA receptors over AMPA, kainate, GABA, glycine, ATP, and 5-HT3A receptors (Supporting Table S3).
Receptor Agonist % Control
Supplemental Table S3. Off-target actions of EU93-108 at ligand-gated ion channels expressed in Xenopus oocytes. The mean ± standard error of the mean for agonist plus 10 μM EU93-108 as a percentage of agonist in vehicle are given for each compound and receptor tested. Number of oocytes tested is given in parentheses.

5-HT2A = 5-HT2A (Homo sapiens, UniProt P28223); test: Radioligand binding assay (NIMH PDSP)
Protocol: (§1) Compound EU93-108 was also tested for inhibition of binding of probes to a range of GPCRs and other targets (Table 4 and Supporting Table S4). […] EU93-108 produced significant displacement of binding probes for the 5-HT2 receptors and α-1-adrenergic receptors, as well as D3, H1, and σ1 receptors. Concentration–response binding competition curves for these targets were used to determine Ki values (Table 4). Given that the brain concentration of EU93-108 achieved 30 min post i.p. injection is 18 μM (Figure 6), the doses that yield our desired antinociceptive effects may engage some of the receptors listed in Table 4.
(§2) Conventional competition and saturation radioligand binding assays were used to determine the affinities of reference standards and EU93-108. Experiments were carried out by the NIMH Psychoactive Drug Screening Program (PDSP) and were performed as previously described.[123]
(§3) The detailed experimental protocols for the radioligand assays are available on the NIMH PDSP website at https://pdsp.unc.edu/pdspweb/content/UNC-CH%20Protocol%20Book.pdf.
(§4) Receptor Mean % Receptor Mean % Receptor Mean %
(§5) Inhibition Inhibition Inhibition
(§6) Supplemental Table S4. Off-Target Actions of EU93-108: Primary GPCR Screen. Cloned human molecular targets were individually expressed and submitted to molecular target-based screening with initial screens performed at a final concentration of 10 µM in quadruplicate. Complete protocols for the assays have been previously published (Besnard J et al. 2012). Where inhibition greater than 50% was measured, secondary screens were performed wherein Ki values were calculated (see Table 4).

D3 = D3 (Homo sapiens, UniProt P35462); test: Radioligand binding assay (NIMH PDSP)
Protocol: as §1, §2, §3, §4, §5, §6

Sigma1 (σ1) [1] = target: Sigma1 (σ1) (Homo sapiens, UniProt Q99720); test: Radioligand binding assay (NIMH PDSP)
Sigma1 (σ1) [2] = test: Radioligand binding assay (NIMH PDSP); parameters: species or system human; conditions: ratio of Ki to the IC50 for EU93-108 (555 nM) at GluN2B
C57BL/6J mice = test: Hot water tail immersion test, compound alone (intrinsic antinociception); type: in vivo; conditions: for effect on tail flick latency vs vehicle: n = 8 per group
Excerpt: After evaluating EU93-108 in vitro, we next evaluated a panel of GluN2B inhibitors for their ability to produce an antinociceptive effect using a classical model of pain perception, determination of tail flick latency for mice when their tails are placed in hot water (Figures 4 and 5). The hot water tail immersion test is a well-validated method of assessing reflexive (i.e., spinal) pain-like response in rodents.[80]−[83] We interpret a drug-induced increase in tail flick latency as analgesia.
The inhibitors were injected i.p. 30 min prior to a hot water tail immersion test. Four treatment groups and one control group were used (n = 8 per group) where the control group received vehicle (10% DMSO, 20% PEG, 2% DMA in water) and groups 1 through 4 were randomly assigned one dose of the appropriate compound.
All animal studies performed at Emory have been approved by the Institutional Animal Care and Use Committee at Emory University. Male and female C57BL/6J mice weighing between 20 and 30 g were housed five per cage and given ad libitum access to food and water. The mice were 8–10 weeks of age at the time of experimentation. Animal holding rooms operated on a 12 h dark/light cycle with the dark cycle from 7:00 pm to 7:00 am. Mice were allowed to acclimate in cages for one week after arrival. The mice were handled regularly and habituated to scruffing and cloth restraint for 3–5 days prior to experimentation.
Mouse weights were recorded on the day of each experiment. Mice were given the appropriate treatment(s) 30 min prior to testing. All injection volumes were 10 mL/kg (e.g., 350 μL for a 35 g mouse). For the tail immersion experiments, each mouse was restrained with a Wypall cloth, leaving the tail exposed. The distal two-thirds of the tail was lowered into a sous vide water bath set to 48 °C, and a stopwatch with a resolution of 0.01 s was used to record the time elapsed between immersion and tail flick. Three recordings were taken for each mouse, and each data point is expressed as the mean of the three recordings. A cut-off time of 25 s was implemented to prevent tissue damage or scarring. For each experiment, the identities of the doses were coded by an independent researcher to ensure blinding. The identities were not decoded until the data were analyzed.
Prism 9.3.1 software (GraphPad, San Diego, CA) was used for all data analysis and visualization. Data for intrinsic antinociception was analyzed using one-way ANOVA and Dunnett’s post hoc test for multiple comparisons where each group was compared to vehicle. Data for acute morphine potentiation experiments were analyzed using one-way ANOVA and Tukey’s post hoc test for multiple comparisons was also used, where each group mean was compared to the mean of every other group. Data for tolerance experiments were analyzed using repeated measures two-way ANOVA and Bonferroni post hoc analysis. Data are presented as mean ± SEM and p < 0.05 constitutes significance.

in vivo = test: in vivo; parameters: species or system mice; conditions: C57BL/6J, mouse, ip
Protocol: Some NMDAR antagonists can impact locomotor behavior in animals.[84]−[86] Lower doses have minimal impact while high doses can have anesthetic action that can produce complete immobility. We evaluated this potential side effect in a locomotor assay using a range of doses of EU93-108.
For both male and female mice, n = 8 mice per group were used. Locomotor activity was assessed at 3, 5, 7, 10, 20, and 30 mg/kg EU93-108. Mice were brought to the experiment room the night before and given ad libitum access to food and water. Each mouse was given an i.p. injection of the appropriate dose or vehicle 30 min prior to starting the locomotor boxes (Versamax420 Animal Activity Monitoring System, AccuScan Instruments, Inc., Columbus, OH). Movements of the mice were tracked for 1 h then the mice were placed back in their cages. Data were analyzed using one-way ANOVA and Dunnett’s post hoc test for multiple comparisons where each group was compared to vehicle. Data are presented as mean ± SEM.

[3] = primary screen, 10 µM, quadruplicate
[4] = ratio of Ki to the IC50 for EU93-108 (555 nM) at GluN2B
[5] = secondary screen, binding competition curve
[6] = male mice, i.p. 30 min prior to test

5-HT2A, sequence (P28223 whole entry): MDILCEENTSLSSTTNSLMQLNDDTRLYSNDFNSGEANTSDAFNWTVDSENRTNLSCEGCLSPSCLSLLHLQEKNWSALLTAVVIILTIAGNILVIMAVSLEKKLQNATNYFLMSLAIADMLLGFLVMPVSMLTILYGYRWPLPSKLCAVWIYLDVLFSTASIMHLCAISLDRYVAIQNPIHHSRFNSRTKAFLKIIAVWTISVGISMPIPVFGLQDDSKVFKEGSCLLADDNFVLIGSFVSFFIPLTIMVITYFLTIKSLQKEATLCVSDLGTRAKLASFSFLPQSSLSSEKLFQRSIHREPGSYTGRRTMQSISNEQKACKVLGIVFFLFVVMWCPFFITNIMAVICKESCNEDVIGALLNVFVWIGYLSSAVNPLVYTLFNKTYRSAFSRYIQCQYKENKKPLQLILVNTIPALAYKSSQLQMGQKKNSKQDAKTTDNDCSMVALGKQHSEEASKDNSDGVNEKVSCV
D3, sequence (P35462 whole entry): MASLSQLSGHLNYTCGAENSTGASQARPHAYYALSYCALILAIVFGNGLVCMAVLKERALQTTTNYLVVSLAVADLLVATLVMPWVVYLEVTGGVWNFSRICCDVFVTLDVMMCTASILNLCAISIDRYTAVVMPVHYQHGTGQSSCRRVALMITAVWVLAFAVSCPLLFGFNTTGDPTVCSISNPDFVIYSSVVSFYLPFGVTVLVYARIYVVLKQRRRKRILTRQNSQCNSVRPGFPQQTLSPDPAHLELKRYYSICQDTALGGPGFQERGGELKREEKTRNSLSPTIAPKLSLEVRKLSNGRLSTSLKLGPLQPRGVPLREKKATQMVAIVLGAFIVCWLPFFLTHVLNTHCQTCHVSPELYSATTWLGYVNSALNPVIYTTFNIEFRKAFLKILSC
Sigma1 (σ1) (Homo sapiens, UniProt Q99720), sequence (Q99720 whole entry): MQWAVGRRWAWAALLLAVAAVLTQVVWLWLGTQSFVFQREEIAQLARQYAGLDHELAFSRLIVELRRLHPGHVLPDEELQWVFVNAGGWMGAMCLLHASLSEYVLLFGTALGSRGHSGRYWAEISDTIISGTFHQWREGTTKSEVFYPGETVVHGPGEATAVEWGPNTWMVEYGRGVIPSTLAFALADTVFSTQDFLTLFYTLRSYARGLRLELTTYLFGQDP

Q: Which “% Control 10 µM EU93-108” value (hP2x) does the source give for `CS(=O)(=O)Nc1ccc(OC[C@@H](O)CN2CCN(c3ccc(F)c(F)c3)CC2)cc1` [EU93-108, (S)-N-(4-(3-(4-(3,4-Difluorophenyl)piperazin-1-yl)-2-hydroxypropoxy)phenyl)methanesulfonamide] here?
A: 96.6 ± 4.3%

Q: What about the inhibition at 10 µM (5-HT2A; [3]) of the same molecule?
A: 83.8%

Q: What about the “Ki/IC50 of EU93-108” value (5-HT2A; [4]) of the same molecule?
A: 0.88

Q: What about the Ki (5-HT2A; [5]) of the same molecule?
A: 490 nM

Q: What about the inhibition at 10 µM (D3; [3]) of the same molecule?
A: 67.1%

Q: What about the “Ki/IC50 of EU93-108” value (D3; [4]) of the same molecule?
A: 0.34

Q: What about the Ki (D3; [5]) of the same molecule?
A: 190 nM

Q: What about the inhibition at 10 µM (Sigma1 (σ1) [1]; [3]) of the same molecule?
A: 69.2%

Q: What about the Ki (Sigma1 (σ1) [1]; [5]) of the same molecule?
A: 505 nM

Q: What about the “Ki/IC50 of EU93-108” value (Sigma1 (σ1) [2]) of the same molecule?
A: 0.91

Q: And the ED50 (C57BL/6J mice; Mus musculus, ip, male mice, i.p., fitted dose–response curve, estimated, read-out: ED50 (tail flick latency), EU93-108 alone)?
A: 9.7 mg/kg

Q: What about the “dose at which significant increase in latency was achieved” value (C57BL/6J mice; female mice, i.p.) of the same molecule?
A: 60 mg/kg

Q: And the “effect on tail flick latency vs vehicle” value (C57BL/6J mice; female mice, i.p. 30 min prior to test)?
A: increased latency, but only at 60 mg/kg

Q: And the mean latency increase (C57BL/6J mice; [6])?
A: 16 s

Q: And the “effect on tail flick latency vs vehicle” value (C57BL/6J mice; [6])?
A: significant increases in latency at the two highest doses tested (30 and 60 mg/kg)

Q: And the “dose at which significant latency increases were achieved” value (C57BL/6J mice; male mice, i.p., lowest significant dose)?
A: 30 mg/kg

Q: And the ED50 at 1 h (in vivo; female)?
A: 15.2 mg/kg

Q: What about the ED50 at 1 h (in vivo; male) of the same molecule?
A: 13.5 mg/kg

Reference: PMC9983021, “Novel GluN2B-Selective NMDA Receptor Negative Allosteric Modulator Possesses Intrinsic Analgesic Properties and Enhances Analgesia of Morphine in a Rodent Tail Flick Pain Model” (ACS Chemical Neuroscience, 2023)
